According to patent publication US20230255988A1 (CORNELL UNIVERSITY, priority 2020, published 2023):
“Also recorded” adds a separate entry of the source.

What was measured:
[1] = system: amyloid positive patients with amnestic mild cognitive impairment (aMCI) or mild dementia due to AD; assay: Buschke Selective Reminding Test (SRT), 12-month trial; format: in vivo, human; conditions: 12 months
Text: The trial duration per participant was twelve months. […] The Buschke Selective Reminding Test (SRT) is a standard diagnostic tool in the assessment of verbal memory. Several studies attest to its predictive value for dementia.

[2] = system: amyloid positive patients with amnestic mild cognitive impairment (aMCI) or mild dementia due to AD; assay: Neuropsychiatric Inventory (NPI), 12-month trial; format: in vivo, human
Procedure: The trial duration per participant was twelve months. […] Neuropsychiatric Inventory (NPI). The NPI assesses a wide range of behaviors encountered in dementia patients to provide a means of distinguishing frequency and severity of behavioral changes. Ten behavioral and two neuro-vegetative domains are evaluated through an interview with the caregiver.

[3] = system: amyloid positive patients with amnestic mild cognitive impairment (aMCI) or mild dementia due to AD; assay: Alzheimer's Disease Cooperative Study-Activities of Daily Living (ADCS-ADL), 12-month trial; format: in vivo, human; conditions: 12 months
Text: (§1) The trial duration per participant was twelve months.
Alzheimer's Disease Cooperative Study-Activities of Daily Living (ADCS-ADL). The ADCS-ADLSIV is a caregiver-based ADL scale composed of 19 items developed for use in dementia clinical studies (D. Galasko et al., Alzheimer Disease and Associated Disorders, 11, S33-S39, 1997). It assesses the patient's performance of both basic and instrumental activities of daily living, such as those necessary for personal care, communicating and interacting with other people, maintaining a household, conducting hobbies and interests, as well as making judgments and decisions. Higher numbered scores and answers of “yes” reflect a more self-sufficient individual. Therefore, the higher total score correlates with higher cognitive function. The total score is the sum of all items and sub-questions.

[4] = system: advanced glycation end products (AGE); assay: Advanced glycation end products (AGE) level, ABCAM kit; format: in vivo, human; conditions: 12 months
Procedure: Biomarker outcomes. AGE are formed during the Maillard reaction where reducing carbohydrates react with lysine side chains and N-terminal amino groups of various macromolecules, particularly proteins. AGE can adversely affect the function of these macromolecules. One of the most prevalent advanced glycation end products, N-epsilon-(carboxymethyl) lysine, has been implicated in oxidative stress and vascular damage. The quantity of AGE adduct in protein samples is determined by comparison with that of a known AGE-BSA standard curve. AGE levels were measured on plasma sample with a kit from ABCAM (AB238539), Cambridge, Mass., USA

[5] = system: brain glucose utilization; assay: FDG PET imaging of glucose metabolism, regions of interest; format: in vivo, human
Text: Image acquisition, processing, and measurement. FDG PET imaging of glucose metabolism was acquired at baseline and after 12 months of treatment. All scans were acquired on a Siemens MCT 64 PET/CT PET-CT scanner at CUIMC. Study participants were maintained in an awake, at rest state with eyes and ears open in dim lighting during tracer uptake. Forty minutes after injection of the tracer, the emission image was acquired in four contiguous 5-minute frames. Frames were aligned with SPM 12, averaged, and then spatially normalized to the MNI template using SPM12 (https://www.fil.ion.ucl.ac.uk/spm/software/spm12/), resulting in one image per participant for each time point. Average voxel values within 90 regions of interest (ROIs) in the Automated Anatomic Labeling (AAL) Atlas were computed. […] The paracentral lobule and cerebellum were included as reference regions given their relative preservation during AD progression.

[6] = system: amyloid positive patients with amnestic mild cognitive impairment (aMCI) or mild dementia due to AD; assay: Safety profile / adverse events in 12-month trial; format: in vivo, human
Text: as §1
Pre-screening of 634 patients at the METS at the Burke Rehabilitation Hospital excluded all but 120 participants (FIG. 1). Only eighty-three of these patients were amyloid positive. Twelve declined to participate. Seventy-one of these participants agreed to be part of the trial, and were randomized to receive either placebo or benfotiamine. Eight subjects were prematurely discontinued from the trial prior to Month 12. Three participants were withdrawn due to non-compliance <80%; three withdrew consent due to unwillingness to complete study procedures; one participant was lost to follow-up and one was withdrawn by PI due to physical limitations. None of the participants randomized to the treatment group withdrew due to adverse reactions or adverse effects. […] After the trial completion and after the data were locked, one patient in the placebo group was determined to be on benfotiamine from another source and was excluded from the per-protocol analysis.

[7] = in vivo
Procedure: Measures of thiamine and its esters thiamine diphosphate (ThDP) and thiamine monophosphate (ThMP) provided blood markers of efficacy of drug delivery.
Study procedures. […] At the baseline visit, the cognitive tests were performed and blood drawn for measurement of thiamine, ThDP and ThMP by HPLC and APOE genotyping. Enrolled patients returned to the Burke outpatient clinic at month 3, 6, 9 and 12 for subsequent visits. At month 12, the final FDG/PET scan was performed at CUIMC.
The trial duration per participant was twelve months. […] At each visit, the patients returned the pill bottles for that period. The number of pills returned was used to assess compliance (the percent of pills consumed).

C/C(=C(\CCOP(=O)(O)O)SC(=O)c1ccccc1)N(C=O)Cc1cnc(C)nc1N [benfotiamine]
Buschke SRT score and change in score versus placebo ([1]; p=0.177, change 0.315): no significant change
Buschke SRT score course over time ([1]; placebo showed a downward trend): stable scores
change in NPI, whole population ([2]; 12 months versus placebo): No differences
NPI score in males ([2]; males, month 9 (0.014) and month 12 (p=0.035)): significantly reduced scores; also recorded: highly significant benefit in males
ADCS-ADL score versus placebo [3]: no significant differences
AGE effect by APOE ε4 status [4]: more apparent in non-APOE ε4 patients
effect on AGE over the course of the disease ([4]; 13 benfotiamine patients, p=0.043): inhibited the increase in AGE
FDGPET Month_12 - Baseline change, Entorhinal_cortex Left ([5]; n = 34, 2×300 mg per day): −0.02 (0.11)
FDGPET Month_12 - Baseline change, Entorhinal_cortex Right ([5]; n = 34, 2×300 mg per day): −0.02 (0.10)
FDGPET Month_12 - Baseline change, Frontal cortex Left ([5]; n = 34, 2×300 mg per day): −0.03 (0.04)
FDGPET Month_12 - Baseline change, Frontal cortex Right ([5]; n = 34, 2×300 mg per day): −0.03 (0.04)
FDGPET Month_12 - Baseline change, Hippocampus Left ([5]; n = 34, 2×300 mg per day): −0.01 (0.04)
FDGPET Month_12 - Baseline change, Hippocampus Right ([5]; n = 34, 2×300 mg per day): −0.02 (0.04)
FDGPET Month_12 - Baseline change, Medial temporal Left ([5]; n = 34, 2×300 mg per day): −0.03 (0.04)
FDGPET Month_12 - Baseline change, Medial temporal Right ([5]; n = 34, 2×300 mg per day): −0.03 (0.05)
FDGPET Month_12 - Baseline change, Parietal Left ([5]; n = 34, 2×300 mg per day): −0.02 (0.05)
FDGPET Month_12 - Baseline change, Parietal Right ([5]; n = 34, 2×300 mg per day): −0.02 (0.04)
FDGPET Month_12 - Baseline change, Percuneus Left ([5]; n = 34, 2×300 mg per day): −0.03 (0.04)
FDGPET Month_12 - Baseline change, Percuneus Right ([5]; n = 34, 2×300 mg per day): −0.03 (0.04)
FDGPET Month_12 - Baseline change, Posterior cingulate Left ([5]; n = 34, 2×300 mg per day): −0.02 (0.03)
FDGPET Month_12 - Baseline change, Posterior cingulate Right ([5]; n = 34, 2×300 mg per day): −0.02 (0.03)
FDGPET Month_12 - Baseline change, Prefrontal_cortex Left ([5]; n = 34, 2×300 mg per day): −0.02 (0.04)
FDGPET Month_12 - Baseline change, Prefrontal_cortex Right ([5]; n = 34, 2×300 mg per day): −0.03 (0.04)
FDGPET Month_12 - Baseline change, Whole_brain ([5]; n = 34, 2×300 mg per day): −0.01 (0.02)
FDGPET in pre-specified regions of interest, benfotiamine versus placebo ([5]; paracentral lobule and cerebellum as reference region): No significant differences
adverse events related to benfotiamine ([6]; 2×300 mg benfotiamine per day, twelve months): No adverse events
safety of administration in patients with aMCI and dementia due to AD ([6]; overall conclusion): safe
withdrawal due to adverse reactions or adverse effects ([6]; participants randomized to the treatment group): None
Allergy, number of patients (%) ([6]; treatment n = 34, 12 months): 0 (0%)
Anxiety, number of patients (%) ([6]; treatment n = 34, 12 months): 5 (14%)
Bruise, number of patients (%) ([6]; treatment n = 34, 12 months): 2 (6%)
Cold symptoms, number of patients (%) ([6]; treatment n = 34, 12 months): 3 (8%)
Depression, number of patients (%) ([6]; treatment n = 34, 12 months): 1 (3%)
Dizziness, number of patients (%) ([6]; treatment n = 34, 12 months): 3 (8%)
Fall, number of patients (%) ([6]; treatment n = 34, 12 months): 6 (17%)
Gastrointestinal problem, number of patients (%) ([6]; treatment n = 34, 12 months): 9 (26%)
Head injury, number of patients (%) ([6]; treatment n = 34, 12 months): 0 (0%)
Heart arrhythmia, number of patients (%) ([6]; treatment n = 34, 12 months): 1 (3%)
Pain, number of patients (%) ([6]; treatment n = 34, 12 months): 5 (14%)
Pneumonia, number of patients (%) ([6]; treatment n = 34, 12 months): 0 (0%)
Sprain, number of patients (%) ([6]; treatment n = 34, 12 months): 0 (0%)
Stroke, number of patients (%) ([6]; treatment n = 34, 12 months): 2 (6%)
Surgery, number of patients (%) ([6]; treatment n = 34, 12 months): 1 (3%)
Total adverse events ([6]; treatment n = 34, 12 months, placebo 59): 38
increase in blood thiamine above baseline ([7]; human, 12 months): 161 fold
difference in thiamine levels by APOE-epsilon4 carrier status following treatment [7]: three-fold
